Ki data for 1 compound are collected here from BindingDB's records for doi:10.1124/jpet.104.081224 (German Cancer Research Center, 2005).

Assay [1] deals with T1, Solute carrier organic anion transporter family member 1B3 (Homo sapiens, UniProt Q9NPD5).
T1 sequence (Q9NPD5 whole entry): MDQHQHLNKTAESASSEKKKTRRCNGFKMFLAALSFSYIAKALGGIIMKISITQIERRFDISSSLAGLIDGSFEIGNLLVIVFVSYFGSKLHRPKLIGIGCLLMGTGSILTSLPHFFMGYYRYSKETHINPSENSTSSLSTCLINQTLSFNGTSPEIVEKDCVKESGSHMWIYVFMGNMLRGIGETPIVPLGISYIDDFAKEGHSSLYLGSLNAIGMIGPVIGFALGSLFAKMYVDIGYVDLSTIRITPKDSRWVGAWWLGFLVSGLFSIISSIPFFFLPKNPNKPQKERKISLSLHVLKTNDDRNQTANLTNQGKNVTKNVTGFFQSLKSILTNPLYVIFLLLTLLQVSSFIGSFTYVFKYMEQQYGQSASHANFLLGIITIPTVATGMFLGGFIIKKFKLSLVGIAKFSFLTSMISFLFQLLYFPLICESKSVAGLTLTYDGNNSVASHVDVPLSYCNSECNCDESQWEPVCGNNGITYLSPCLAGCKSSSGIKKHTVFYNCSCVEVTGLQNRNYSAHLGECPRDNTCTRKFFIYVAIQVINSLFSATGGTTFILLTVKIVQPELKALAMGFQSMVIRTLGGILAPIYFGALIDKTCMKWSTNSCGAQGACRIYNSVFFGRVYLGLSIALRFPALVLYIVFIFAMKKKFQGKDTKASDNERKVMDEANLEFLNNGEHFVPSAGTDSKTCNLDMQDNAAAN

The target of assay [2] is ATP-binding cassette sub-family C member 2 (Homo sapiens, UniProt Q92887).
Chain of ATP-binding cassette sub-family C member 2 (Q92887 whole entry): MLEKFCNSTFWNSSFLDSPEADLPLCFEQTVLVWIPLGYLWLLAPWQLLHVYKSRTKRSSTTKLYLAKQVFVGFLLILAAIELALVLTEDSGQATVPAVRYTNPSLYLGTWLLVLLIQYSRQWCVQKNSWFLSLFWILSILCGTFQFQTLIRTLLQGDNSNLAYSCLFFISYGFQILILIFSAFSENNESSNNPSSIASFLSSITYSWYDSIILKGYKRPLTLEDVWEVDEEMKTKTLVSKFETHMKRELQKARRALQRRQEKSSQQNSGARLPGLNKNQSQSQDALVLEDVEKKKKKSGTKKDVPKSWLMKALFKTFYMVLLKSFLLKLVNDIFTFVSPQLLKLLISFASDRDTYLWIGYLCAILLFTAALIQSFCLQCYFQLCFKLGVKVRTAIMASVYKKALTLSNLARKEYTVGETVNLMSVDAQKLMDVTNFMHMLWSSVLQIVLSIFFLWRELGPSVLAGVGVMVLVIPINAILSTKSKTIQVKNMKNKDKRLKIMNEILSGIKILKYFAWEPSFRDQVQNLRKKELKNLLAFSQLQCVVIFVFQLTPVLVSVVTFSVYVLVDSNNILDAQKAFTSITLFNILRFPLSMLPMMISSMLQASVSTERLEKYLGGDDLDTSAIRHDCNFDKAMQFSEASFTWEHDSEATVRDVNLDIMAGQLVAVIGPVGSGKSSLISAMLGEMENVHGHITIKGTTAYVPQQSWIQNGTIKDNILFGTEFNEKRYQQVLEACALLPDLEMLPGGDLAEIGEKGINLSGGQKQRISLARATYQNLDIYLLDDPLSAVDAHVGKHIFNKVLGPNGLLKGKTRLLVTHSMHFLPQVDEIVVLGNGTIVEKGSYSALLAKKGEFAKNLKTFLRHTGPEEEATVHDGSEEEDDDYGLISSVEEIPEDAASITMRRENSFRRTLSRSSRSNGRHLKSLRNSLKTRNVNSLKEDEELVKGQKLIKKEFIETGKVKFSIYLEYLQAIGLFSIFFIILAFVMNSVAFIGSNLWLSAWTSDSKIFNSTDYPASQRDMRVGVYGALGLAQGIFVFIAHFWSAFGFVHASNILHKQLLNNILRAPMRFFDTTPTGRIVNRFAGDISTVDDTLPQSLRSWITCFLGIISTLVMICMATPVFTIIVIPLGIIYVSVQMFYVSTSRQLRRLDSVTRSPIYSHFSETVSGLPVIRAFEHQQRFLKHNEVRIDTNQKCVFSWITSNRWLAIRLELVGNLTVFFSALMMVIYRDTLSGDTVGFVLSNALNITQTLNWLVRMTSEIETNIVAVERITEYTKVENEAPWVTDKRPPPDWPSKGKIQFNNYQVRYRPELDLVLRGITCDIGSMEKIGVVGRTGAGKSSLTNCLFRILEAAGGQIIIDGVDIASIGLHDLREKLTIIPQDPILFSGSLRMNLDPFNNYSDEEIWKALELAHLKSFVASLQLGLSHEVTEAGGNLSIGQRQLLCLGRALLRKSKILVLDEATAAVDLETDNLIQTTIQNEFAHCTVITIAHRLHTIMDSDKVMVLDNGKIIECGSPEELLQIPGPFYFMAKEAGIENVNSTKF

SMILES strings stand for the structures.

Broadly, the Ki is a dissociation constant, usually derived from enzyme kinetics or from competition with a known ligand. Low readings indicate higher affinity, high ones lower affinity. Regarding `CN(C)C(=O)CCSC(SCCC(=O)O)c1cccc(C=Cc2ccc3ccc(Cl)cc3n2)c1` (configuration not stated) [NSC_60719], the Ki in assay [1] turned out to be 0.6 µM; in assay [2] it was 8.5 µM.
